Measurements taken from patent US6703237B2, “Methods and formulations for mediating adeno-associated virus (AAV) attachment and infection and methods for purifying AAV” (priority 1998, dated 2004).

How the values were obtained:
rAd-LacZ [1] = conditions: 20 mM EDTA; HeLa cells; MOI 2
Method: (§1) HeLa cells were infected with recombinant virus (rAd-LacZ [FIG. 11A], rAAV-LacZ [FIG. 11B]) at an MOI of 2 either in the presence or absence of divalent cation chelator EDTA (20 mM) as described in methods. 24 h post Ad infection, and 36 h post AAV infection, cells were fixed and stained for β-galactosidase activity (upper panel). Transduction has been quantitated in the lower panel as the percentage of HeLa cells transduced in the presence or absence of EDTA.
(§2) All infectivity and binding assays were done in suspension in a buffer determined to result in maximum cell viability, HEPES-buffered saline (HBS) containing 1% BSA (HBSB) (Sambrook et al., (1989) Molecular Cloning, A Laboratory Manual, (N. Ford et al., eds.), Cold Spring Harbor Laboratory Press, New York). Adherent cells were first detached with 10 mM EDTA followed by two washes in phosphate buffered saline (PBS) containing […] CaCl2 and 0.5 mM MgCl2 and one wash in HBS. To assess the effect of EDTA on AAV transduction, HeLa cells were incubated with recombinant virus at an MOI of 2 in HBS±20 mM EDTA for 1 hour at 4° C. After washing in HBS±EDTA to remove unbound virus, cells were resuspended in HBS±5 mM EDTA and placed at 37° C. for 30 minutes.

rAAV-LacZ = conditions: 20 mM EDTA; HeLa cells; MOI 2
Method: as §1, §2

rAd-LacZ [2] = conditions: Svensson and Persson 1984; cited from earlier work

O=C(O)CN(CCN(CC(=O)O)CC(=O)O)CC(=O)O [EDTA, ethylenediaminetetraacetate]
inhibition of recombinant Ad-LacZ transduction (rAd-LacZ [1]): 40%
inhibition of AAV infection (rAAV-LacZ): greater than 90%
inhibition of Ad infection, previous published results (rAd-LacZ [2]): 20-50%
